Measurements from patent publication US9067926B2, “Fluoromethyl-5,6-dihydro-4H-[1,3]OXAZINES” (F. Hoffmann-La Roche AG, priority 2012, dated 2015).
pIC50: −log10 of the molar value.

How the values were obtained:
[1] = Detection of glutathione conjugates (GSH); assay type: in vitro ADME, human; set-up: key: NF = in vitro no adduct formation relative to control; settings: in vitro, relative to control
From the text: Detection of Glutathione Conjugates (GSH) The assay conditions for the detection of glutathione conjugates follow the procedure described by C. M. Dieckhaus et al. in Chem. Res. Toxicol. 2005, 18, 630-63.

[2] = biological target: T1, recombinant human cathepsin E (Homo sapiens, UniProt P14091); test: Cathepsin E fluorescent substrate kinetic assay; assay type: biochemical; settings: pH 4.5
T1 construct: purchased R&D Systems
T1 sequence (P14091 54-396): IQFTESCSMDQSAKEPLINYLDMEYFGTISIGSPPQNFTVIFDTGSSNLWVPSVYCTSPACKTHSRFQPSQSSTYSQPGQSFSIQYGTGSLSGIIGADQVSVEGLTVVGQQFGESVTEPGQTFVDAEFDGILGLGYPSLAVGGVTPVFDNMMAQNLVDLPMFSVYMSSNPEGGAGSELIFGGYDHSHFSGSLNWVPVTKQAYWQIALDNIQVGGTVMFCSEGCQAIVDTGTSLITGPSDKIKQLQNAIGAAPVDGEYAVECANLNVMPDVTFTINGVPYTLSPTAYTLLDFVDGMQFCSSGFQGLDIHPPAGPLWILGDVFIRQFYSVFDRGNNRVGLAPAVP
From the text: (§1) Cathepsin D and Cathepsin E Fluorescent Substrate Kinetic Assays
(§2) The MR121 fluorescence assays described below are based on the fact that MR121 forms a non-fluorescent ground state complex with tryptophan. In solution this formation occurs at millimolar concentrations of tryptophan. The mechanism can be used to design a generic biochemical assay for proteases. […] In absence of protease activity, the substrates remain intact and the MR121 fluorescence is reduced by the high local Trp-concentration. If the substrates are cleaved by the enzymes the MR121 fluorescence is recovered.
(§3) The fluorescent substrate cathepsin D and cathepsin E kinetic assays were performed at room temperature in 384-well microtiter plates (black with clear flat bottom, non binding surface plates from Corning) in a final volume of 51 μl. The test compounds were serially diluted in DMSO (15 concentrations, 1/3 dilution steps) and 1 μl of diluted compounds were mixed for 10 min with 40 μl of cathepsin D (from human liver, Calbiochem) diluted in assay buffer (100 mM sodium acetate, 0.05% BSA, pH 5.5; final concentration: 200 nM) or with 40 μl of recombinant human cathepsin E (R&D Systems) diluted in assay buffer (100 mM sodium acetate, 0.05% BSA, pH 4.5; final concentration: 0.01 nM). […] The slope in the linear range of the kinetic was calculated and the IC50 of the test compounds were determined using a four parameter equation for curve fitting.

CYP3A4 = biological target: T2, CYP3A4 (Homo sapiens, UniProt P08684); test: CYP inhibition assay, CYP3A4; assay type: in vitro ADME; settings: pooled human liver microsomes, midazolam substrate; read-out: CYP IC50 3A4
T2 construct: 0.2 mg/ml pooled human liver microsomes; from tissue; host or cells: pooled human liver microsomes
T2 sequence (P08684 whole entry): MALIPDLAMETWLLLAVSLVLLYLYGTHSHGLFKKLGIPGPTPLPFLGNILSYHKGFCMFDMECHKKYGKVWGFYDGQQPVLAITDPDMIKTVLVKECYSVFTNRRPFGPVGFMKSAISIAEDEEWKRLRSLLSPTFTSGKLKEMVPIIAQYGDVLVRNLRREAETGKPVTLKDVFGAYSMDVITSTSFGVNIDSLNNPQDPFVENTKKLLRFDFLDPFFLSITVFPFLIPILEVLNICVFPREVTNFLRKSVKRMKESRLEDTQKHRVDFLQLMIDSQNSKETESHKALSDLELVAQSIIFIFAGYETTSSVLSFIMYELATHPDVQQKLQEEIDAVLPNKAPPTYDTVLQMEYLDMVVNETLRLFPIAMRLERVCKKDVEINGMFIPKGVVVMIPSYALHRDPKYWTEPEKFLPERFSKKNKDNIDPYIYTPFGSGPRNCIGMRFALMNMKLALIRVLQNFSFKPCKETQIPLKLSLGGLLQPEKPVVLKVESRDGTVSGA
Protocol: (§4) Inhibition of cytochromes P450 (CYPs) 2C9, 2D6 and 3A4 was assessed using human liver microsomes and CYP-selective substrate metabolism reactions. […] Quenched incubates were stored at −20° C. for at least 1 hour before centrifugation (20,000×g, 20 minutes). Supernatants were removed and diluted 1:1 with water prior to analysis using a RapidFire sample injector system and API4000 mass spectrometer. Peak areas for substrate, metabolite and stable-labelled metabolite standard were determined using MS/MS. The peak area ratios between the metabolite generated by the enzymatic reaction and the internal standard were used in subsequent calculations. The percentage of (DMSO) control activity was calculated for each incubate and IC50 values estimated by non-linear regression. Sulfaphenazole, quinidine or ketoconazole were tested in each CYP2C9, CYP2D6 or CYP3A4 inhibition experiment, respectively, to ensure assay sensitivity and reproducibility.

CYP2D6 = biological target: T3, CYP2D6 (Homo sapiens, UniProt P10635); test: CYP inhibition assay, CYP2D6; assay type: in vitro ADME; settings: pooled human liver microsomes, dextromethorphan substrate; read-out: CYP IC50 2D6
T3 construct: 0.2 mg/ml pooled human liver microsomes; from tissue; host or cells: pooled human liver microsomes
T3 sequence (P10635 whole entry): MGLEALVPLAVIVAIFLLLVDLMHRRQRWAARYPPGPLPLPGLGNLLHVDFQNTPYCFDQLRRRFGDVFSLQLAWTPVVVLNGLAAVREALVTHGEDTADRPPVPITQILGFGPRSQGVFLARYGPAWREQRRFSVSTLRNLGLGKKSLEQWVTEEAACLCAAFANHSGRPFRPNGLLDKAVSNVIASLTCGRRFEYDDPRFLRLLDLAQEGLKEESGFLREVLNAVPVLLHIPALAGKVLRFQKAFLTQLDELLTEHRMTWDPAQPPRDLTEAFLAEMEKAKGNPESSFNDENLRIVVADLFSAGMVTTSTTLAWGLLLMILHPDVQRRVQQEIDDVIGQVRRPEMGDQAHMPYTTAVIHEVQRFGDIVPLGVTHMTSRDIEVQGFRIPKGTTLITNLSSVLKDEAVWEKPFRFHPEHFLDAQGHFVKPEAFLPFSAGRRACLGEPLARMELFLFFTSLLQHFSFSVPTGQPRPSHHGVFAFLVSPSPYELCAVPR
Protocol: as §4

[3] = biological target: T4, cathepsin D (from human liver) (Homo sapiens, UniProt P07339); test: Cathepsin D fluorescent substrate kinetic assay; assay type: biochemical; settings: pH 5.5
T4 construct: cathepsin D (from human liver, Calbiochem) diluted in assay buffer; purchased Calbiochem; host or cells: human liver
T4 sequence (P07339 65-412): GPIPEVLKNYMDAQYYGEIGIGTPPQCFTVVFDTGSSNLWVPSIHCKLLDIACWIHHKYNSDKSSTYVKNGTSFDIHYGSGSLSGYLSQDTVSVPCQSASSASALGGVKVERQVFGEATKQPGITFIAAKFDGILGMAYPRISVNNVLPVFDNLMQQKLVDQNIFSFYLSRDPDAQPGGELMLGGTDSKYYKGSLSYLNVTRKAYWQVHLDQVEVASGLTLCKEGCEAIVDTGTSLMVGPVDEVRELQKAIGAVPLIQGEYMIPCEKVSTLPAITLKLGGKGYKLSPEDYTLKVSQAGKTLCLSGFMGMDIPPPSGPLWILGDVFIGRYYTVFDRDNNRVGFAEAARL
From the text: as §1, §2, §3

CYP2C9 = biological target: T5, CYP2C9 (Homo sapiens, UniProt P11712); test: CYP inhibition assay, CYP2C9; assay type: in vitro ADME; settings: pooled human liver microsomes, diclofenac substrate; read-out: CYP IC50 2C9
T5 construct: 0.2 mg/ml pooled human liver microsomes; from tissue; host or cells: pooled human liver microsomes
T5 sequence (P11712 whole entry): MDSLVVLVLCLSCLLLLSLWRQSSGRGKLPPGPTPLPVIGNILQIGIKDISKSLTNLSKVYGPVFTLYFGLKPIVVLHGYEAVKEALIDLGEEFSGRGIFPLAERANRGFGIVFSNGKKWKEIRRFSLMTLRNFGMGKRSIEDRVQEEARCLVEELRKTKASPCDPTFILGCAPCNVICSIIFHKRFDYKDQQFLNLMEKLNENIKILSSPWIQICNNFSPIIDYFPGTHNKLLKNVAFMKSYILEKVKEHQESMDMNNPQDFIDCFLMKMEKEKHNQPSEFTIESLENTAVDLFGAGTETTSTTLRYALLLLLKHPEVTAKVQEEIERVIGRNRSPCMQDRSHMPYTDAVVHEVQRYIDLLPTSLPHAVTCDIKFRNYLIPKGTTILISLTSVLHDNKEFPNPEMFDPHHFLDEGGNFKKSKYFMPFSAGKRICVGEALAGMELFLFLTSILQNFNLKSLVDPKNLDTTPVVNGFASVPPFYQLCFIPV
Protocol: as §4

Aβ40 in brain = test: In vivo inhibition of Aβ40 in brain of wild-type mice; settings: Mus musculus, po; 10 mg/kg p.o., brain Aβ40 after 4 h, female C57Bl/6J mice; read-out: in vivo effect, Percentage of control @ 10 mg/kg p.o
Protocol: In Vivo Experiments. […] The test compound was dissolved in 5% EtOH, 10% Solutol and was applied per os at 10 ml/kg. After 4 h the animals were sacrificed and brain and plasma were collected. The brain was cut into halves and immediately frozen on dry ice. Brain was used for measurement of Aβ40 and plasma was used for determination of compound exposure. […] Brain tissue was homogenized in 2% DEA buffer in a Roche […] (20'', 4000 rpm) and subsequently centrifuged for 1 h at 100'000 g. DEA was reduced to 0.2% in 50 mM NaCl and one half of the DEA lysate was passed over an Oasis Solid Phase extraction plate (Waters; Cat.Nr. 186000679) which had been activated with MeOH and equilibrated in dH2O (1 ml each). After washes in 10% and 30% MeOH (1 ml each) the AP-peptides were eluted in 0.8 ml 2% NH4OH in 90% MeOH. […] Aβ40 was determined by an AlphaLISA assay (Perkin Elmer). In a white 96well half-area microplate (Perkin Elmer Cat.Nr. 6005561), 20 μl of the reconstituted sample were mixed with 5 μl biotinylated BAP-24 (specific for C-terminus of Aβ40 (Brockhaus, M.; Grunberg, J.; Rohrig, S.; Loetscher, H.; Wittenburg, N.; Baumeister, R.; Jacobsen, […]. Caspase-mediated cleavage is not required for the activity of presenilins in amyloidogenesis and NOTCH signaling. […] The mix was incubated for 1 h at RT in the dark. Then 20 μl Streptavin-coated Donor Beads (Perkin Elmer Cat. Nr. 6760002, final dilution 1:125) were added and this final mix was incubated in the dark for another 30 min at r.t. before RFU was measured in an AlphaScreen Reader(Perkin Elmer Envision 2104).

hERG = hERG (Homo sapiens, UniProt Q12809); test: hERG current measurement (automated patch clamp); assay type: cell-based
Sequence of hERG (Q12809 whole entry): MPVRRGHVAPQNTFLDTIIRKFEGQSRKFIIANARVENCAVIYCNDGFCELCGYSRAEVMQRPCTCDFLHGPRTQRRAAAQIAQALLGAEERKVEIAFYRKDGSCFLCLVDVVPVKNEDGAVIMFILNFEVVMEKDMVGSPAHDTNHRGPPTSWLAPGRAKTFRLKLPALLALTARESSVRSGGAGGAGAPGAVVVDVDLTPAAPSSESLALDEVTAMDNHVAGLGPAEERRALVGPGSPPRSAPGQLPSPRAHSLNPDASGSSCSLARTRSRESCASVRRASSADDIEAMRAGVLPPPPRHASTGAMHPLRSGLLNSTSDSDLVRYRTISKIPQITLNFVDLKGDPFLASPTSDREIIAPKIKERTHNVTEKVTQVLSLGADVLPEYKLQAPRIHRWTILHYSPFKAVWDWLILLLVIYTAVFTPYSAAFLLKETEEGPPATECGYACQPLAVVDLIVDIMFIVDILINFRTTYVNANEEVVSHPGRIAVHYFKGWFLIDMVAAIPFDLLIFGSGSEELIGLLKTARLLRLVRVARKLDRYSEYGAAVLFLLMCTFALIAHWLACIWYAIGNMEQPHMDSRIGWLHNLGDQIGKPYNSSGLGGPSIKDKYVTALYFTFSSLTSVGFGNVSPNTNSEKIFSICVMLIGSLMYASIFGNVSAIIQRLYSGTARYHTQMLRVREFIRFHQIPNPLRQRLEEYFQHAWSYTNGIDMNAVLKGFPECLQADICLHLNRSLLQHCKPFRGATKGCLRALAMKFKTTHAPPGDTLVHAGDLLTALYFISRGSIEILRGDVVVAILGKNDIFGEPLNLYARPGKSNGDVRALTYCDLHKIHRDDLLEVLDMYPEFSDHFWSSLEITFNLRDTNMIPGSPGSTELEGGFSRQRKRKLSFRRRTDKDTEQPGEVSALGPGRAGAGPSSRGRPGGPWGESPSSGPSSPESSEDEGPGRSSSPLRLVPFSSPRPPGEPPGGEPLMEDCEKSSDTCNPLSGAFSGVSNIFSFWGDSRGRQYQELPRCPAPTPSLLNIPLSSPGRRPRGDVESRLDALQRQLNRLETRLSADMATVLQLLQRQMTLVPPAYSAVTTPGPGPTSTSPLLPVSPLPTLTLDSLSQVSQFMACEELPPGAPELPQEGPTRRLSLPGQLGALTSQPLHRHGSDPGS
Protocol: The hERG current measurement was performed at an automated patch clamp system following the procedure described in R. E. Martin et al. in Bio org.

SMILES: NC1=N[C@](CF)(c2cc(NC(=O)c3nn(C(F)F)cc3Cl)ccc2F)C[C@@H](C(F)(F)F)O1 [Example 46, N-(3-((4S,6S)-2-Amino-4-(fluoromethyl)-6-(trifluoromethyl)-5,6-dihydro-4H-1,3-oxazin-4-yl)-4-fluorophenyl)-4-chloro-1-(difluoromethyl)-1H-pyrazole-3-carboxamide]
- GSH human (glutathione adduct formation) [1]: NF
- pIC50 [2]: < 3.70
- pIC50 (CYP3A4): < 4.30
- pIC50 (CYP2D6): 4.62
- pIC50 [3]: < 3.70
- pIC50 (CYP2C9): < 4.30
- response vs control in vivo at 10 mg/kg (Aβ40 in brain): 61%
- hERG Inhibition @ 10 μM (hERG): 8
